Results from publication PMC5218480 (PLoS ONE, 2017).

Tested on: MV-4-11 cells
Assay: Gene expression microarray analysis (Affymetrix PrimeView) and GSEA
Format: cell-based, human
Set-up: RFU PODN (11730768_x_at) / Fold change /veh PODN (11730768_x_at) / RFU LINC00158 (11744669_a_at) / Fold change /veh LINC00158 (11744669_a_at) / RFU DUSP10 (11751237_a_at) / Fold change /veh DUSP10 (11751237_a_at) / RFU ID3 (11757404_x_at) / Fold change /veh ID3 (11757404_x_at) / RFU PLEKHG5 (11737974_s_at) / Fold change /veh PLEKHG5 (11737974_s_at) / RFU LRRC4B (11730491_at) / Fold change /veh LRRC4B (11730491_at) / RFU GIMAP4 (11747438_a_at) / Fold change /veh GIMAP4 (11747438_a_at) / RFU KRT8 (11758183_x_at) / Fold change /veh KRT8 (11758183_x_at) / RFU CNN1 (11734310_a_at) / Fold change /veh CNN1 (11734310_a_at) / RFU VPS37D (11726825_at) / Fold change /veh VPS37D (11726825_at) / RFU C10orf10 (11716522_x_at) / Fold change /veh C10orf10 (11716522_x_at) / RFU KIR2DL2 /// KIR2DL4 /// KIR2DL5A /// KIR2DL5B /// KIR2DS1 /// KIR2DS2 /// KIR2DS3 /// KIR2DS4 /// KIR3DL3 /// KIR3DL3 /// KIR3DS1 (11738374_at) / Fold change /veh KIR2DL2 /// KIR2DL4 /// KIR2DL5A /// KIR2DL5B /// KIR2DS1 /// KIR2DS2 /// KIR2DS3 /// KIR2DS4 /// KIR3DL3 /// KIR3DL3 /// KIR3DS1 (11738374_at) / RFU C1QL1 (11718748_at) / Fold change /veh C1QL1 (11718748_at) / RFU TMPRSS4 (11747572_a_at) / Fold change /veh TMPRSS4 (11747572_a_at) / RFU HAMP (11756126_x_at) / Fold change /veh HAMP (11756126_x_at) / RFU RNFT2 (11725882_a_at) / Fold change /veh RNFT2 (11725882_a_at) / RFU NR4A2 (11747474_a_at) / Fold change /veh NR4A2 (11747474_a_at) / RFU ABCC12 (11746883_a_at) / Fold change /veh ABCC12 (11746883_a_at) / RFU TMEM136 (11760407_x_at) / Fold change /veh TMEM136 (11760407_x_at) / RFU CLDN22 /// WWC2 (11732394_at) / Fold change /veh CLDN22 /// WWC2 (11732394_at) / RFU HLA-DPB1 (11760878_x_at) / Fold change /veh HLA-DPB1 (11760878_x_at) / RFU SPINT1 (11716480_a_at) / Fold change /veh SPINT1 (11716480_a_at) / RFU GAP43 (11754022_s_at) / Fold change /veh GAP43 (11754022_s_at) / RFU A4GNT (11735810_at) / Fold change /veh A4GNT (11735810_at) / RFU PRB3 (11715151_x_at) / Fold change /veh PRB3 (11715151_x_at) / RFU TUBB4B (11761932_at) / Fold change /veh TUBB4B (11761932_at) / RFU CAPN14 (11732068_a_at) / Fold change /veh CAPN14 (11732068_a_at) / RFU TMCC2 (11721928_a_at) / Fold change /veh TMCC2 (11721928_a_at) / RFU IRGQ (11745062_a_at) / Fold change /veh IRGQ (11745062_a_at) / RFU FAM174B (11720279_a_at) / Fold change /veh FAM174B (11720279_a_at) / RFU TMPRSS4 (11748680_a_at) / Fold change /veh TMPRSS4 (11748680_a_at) / RFU FAM212B (11763350_a_at) / Fold change /veh FAM212B (11763350_a_at) / RFU PLEKHG5 (11743358_a_at) / Fold change /veh PLEKHG5 (11743358_a_at) / RFU ZSCAN30 (11745921_a_at) / Fold change /veh ZSCAN30 (11745921_a_at) / RFU CMKLR1 (11741424_a_at) / Fold change /veh CMKLR1 (11741424_a_at) / RFU LOC101060620 /// MAPK8IP1 (11723275_at) / Fold change /veh LOC101060620 /// MAPK8IP1 (11723275_at) / RFU SPTSSB (11747773_x_at) / Fold change /veh SPTSSB (11747773_x_at) / RFU PRSS12 (11739890_at) / Fold change /veh PRSS12 (11739890_at) / RFU BIN1 (11741810_x_at) / Fold change /veh BIN1 (11741810_x_at) / RFU WNT11 (11732464_a_at) / Fold change /veh WNT11 (11732464_a_at) / RFU C10orf10 (11716521_a_at) / Fold change /veh C10orf10 (11716521_a_at) / RFU C5orf56 (11738089_at) / Fold change /veh C5orf56 (11738089_at) / RFU CYB561 (11721691_x_at) / Fold change /veh CYB561 (11721691_x_at) / RFU ANKRD19P (11752326_a_at) / Fold change /veh ANKRD19P (11752326_a_at) / RFU OR2T12 /// OR2T33 /// OR2T8 (11738714_s_at) / Fold change /veh OR2T12 /// OR2T33 /// OR2T8 (11738714_s_at) / RFU VCAN (11748164_a_at) / Fold change /veh VCAN (11748164_a_at) / RFU JSRP1 (11732532_at) / Fold change /veh JSRP1 (11732532_at) / RFU KRTAP10-11 (11738290_x_at) / Fold change /veh KRTAP10-11 (11738290_x_at) / RFU MYO3A (11730013_a_at) / Fold change /veh MYO3A (11730013_a_at) / RFU EBF3 (11725865_a_at) / Fold change /veh EBF3 (11725865_a_at) / RFU CAMK2N1 (11719241_x_at) / Fold change /veh CAMK2N1 (11719241_x_at) / RFU C5orf56 (11738088_a_at) / Fold change /veh C5orf56 (11738088_a_at) / RFU OLFML3 (11715873_a_at) / Fold change /veh OLFML3 (11715873_a_at) / RFU LOC100653217 /// NTM (11731650_a_at) / Fold change /veh LOC100653217 /// NTM (11731650_a_at) / RFU MAPK11 (11762145_a_at) / Fold change /veh MAPK11 (11762145_a_at) / RFU FIZ1 (11724087_x_at) / Fold change /veh FIZ1 (11724087_x_at) / RFU OASL (11726364_x_at) / Fold change /veh OASL (11726364_x_at) / RFU SOX15 (11748057_x_at) / Fold change /veh SOX15 (11748057_x_at) / RFU CD79A (11719716_a_at) / Fold change /veh CD79A (11719716_a_at) / RFU HIST1H1D (11736915_at) / Fold change /veh HIST1H1D (11736915_at) / RFU CASKIN2 (11723855_a_at) / Fold change /veh CASKIN2 (11723855_a_at) / RFU LOC730098 (11760151_x_at) / Fold change /veh LOC730098 (11760151_x_at) / RFU OR4N2 (11742367_at) / Fold change /veh OR4N2 (11742367_at) / RFU PRRT2 (11749266_a_at) / Fold change /veh PRRT2 (11749266_a_at) / RFU SNX32 (11753110_a_at) / Fold change /veh SNX32 (11753110_a_at) / RFU CDHR5 (11726645_a_at) / Fold change /veh CDHR5 (11726645_a_at) / RFU RCAN1 (11760418_a_at) / Fold change /veh RCAN1 (11760418_a_at) / RFU FAM167A (11723789_a_at) / Fold change /veh FAM167A (11723789_a_at) / RFU FAM26E (11764081_at) / Fold change /veh FAM26E (11764081_at) / RFU ISYNA1 (11749810_s_at) / Fold change /veh ISYNA1 (11749810_s_at) / RFU ACY1 (11761880_at) / Fold change /veh ACY1 (11761880_at) / RFU 11764098_at / Fold change /veh 11764098_at / RFU SAMD14 (11745864_x_at) / Fold change /veh SAMD14 (11745864_x_at) / RFU NPB (11741838_a_at) / Fold change /veh NPB (11741838_a_at) / RFU TMPRSS6 (11731388_a_at) / Fold change /veh TMPRSS6 (11731388_a_at) / RFU KRTAP10-2 (11738614_at) / Fold change /veh KRTAP10-2 (11738614_at) / RFU ARHGAP8 /// PRR5-ARHGAP8 (11727945_x_at) / Fold change /veh ARHGAP8 /// PRR5-ARHGAP8 (11727945_x_at) / RFU KRTAP5-7 /// NADSYN1 (11734609_at) / Fold change /veh KRTAP5-7 /// NADSYN1 (11734609_at) / RFU RASL12 (11751679_a_at) / Fold change /veh RASL12 (11751679_a_at) / RFU CDKN2B (11736163_a_at) / Fold change /veh CDKN2B (11736163_a_at) / RFU PRF1 (11729649_at) / Fold change /veh PRF1 (11729649_at) / RFU, ZNF638 /// ZNF638-IT1 / Fold change vs veh, ZNF638 /// ZNF638-IT1 / RFU, PANK3 / Fold change vs veh, PANK3 / RFU, SH3YL1 / Fold change vs veh, SH3YL1 / RFU, ZEB2 / Fold change vs veh, ZEB2 / RFU, NRIP1 / Fold change vs veh, NRIP1 / RFU, PTTG1IP / Fold change vs veh, PTTG1IP / RFU, CAPN2 / Fold change vs veh, CAPN2 / RFU, MED14 / Fold change vs veh, MED14 / RFU, SNORA58 / Fold change vs veh, SNORA58 / RFU, C1orf63 / Fold change vs veh, C1orf63 / RFU, LRRFIP1 / Fold change vs veh, LRRFIP1 / RFU, NDUFAF7 / Fold change vs veh, NDUFAF7 / RFU, SLC12A2 / Fold change vs veh, SLC12A2 / RFU, IBTK / Fold change vs veh, IBTK / RFU, ESF1 / Fold change vs veh, ESF1 / Fold change vs veh, TMEM50B / RFU, TAOK1 / Fold change vs veh, TAOK1 / RFU, ACBD3 / Fold change vs veh, ACBD3 / RFU, TMA16 / Fold change vs veh, TMA16 / RFU, RWDD3 / Fold change vs veh, RWDD3 / RFU, BCAT1 / Fold change vs veh, BCAT1 / RFU, EDEM3 / Fold change vs veh, EDEM3 / RFU, TMEM33 / Fold change vs veh, TMEM33 / RFU, WDR75 / Fold change vs veh, WDR75 / RFU, AHCTF1 / Fold change vs veh, AHCTF1 / RFU, TFRC / Fold change vs veh, TFRC / RFU, ZDHHC17 / Fold change vs veh, ZDHHC17 / RFU, NOM1 / Fold change vs veh, NOM1 / RFU, ARL8B / Fold change vs veh, ARL8B / RFU, ZBTB11 / Fold change vs veh, ZBTB11 / RFU, TAMM41 / Fold change vs veh, TAMM41 / RFU, KIAA1704 /// LOC100996395 / Fold change vs veh, KIAA1704 /// LOC100996395 / RFU, ING1 / Fold change vs veh, ING1 / RFU, TRMT61B / Fold change vs veh, TRMT61B / RFU, FUBP3 / Fold change vs veh, FUBP3 / RFU, TP53 / Fold change vs veh, TP53 / RFU, TNKS2 / Fold change vs veh, TNKS2 / RFU, ZFP14 / Fold change vs veh, ZFP14 / RFU, ACTR2 / Fold change vs veh, ACTR2 / RFU, PPP3R1 / Fold change vs veh, PPP3R1 / RFU, PIK3R1 / Fold change vs veh, PIK3R1 / RFU, HNRNPA1 / Fold change vs veh, HNRNPA1 / RFU, RNF170 / Fold change vs veh, RNF170 / RFU, ZNF28 / Fold change vs veh, ZNF28 / RFU, RNGTT / Fold change vs veh, RNGTT / RFU, OGT / Fold change vs veh, OGT / RFU, BRD1 / Fold change vs veh, BRD1 / RFU, MARS / Fold change vs veh, MARS / RFU, ZNF655 / Fold change vs veh, ZNF655 / RFU, FAHD1 / Fold change vs veh, FAHD1 / RFU, BDP1 / Fold change vs veh, BDP1 / RFU, LRRCC1 / Fold change vs veh, LRRCC1 / RFU, ARID1A / Fold change vs veh, ARID1A / RFU, ZNF146 / Fold change vs veh, ZNF146 / RFU, ZNF330 / Fold change vs veh, ZNF330 / RFU, GPN3 / Fold change vs veh, GPN3 / RFU, C9orf123 / Fold change vs veh, C9orf123 / RFU, N4BP2L2 / Fold change vs veh, N4BP2L2 / RFU, ARFIP1 / Fold change vs veh, ARFIP1 / RFU, FAM179B / Fold change vs veh, FAM179B / RFU, BCL10 / Fold change vs veh, BCL10 / RFU, UHRF1BP1L / Fold change vs veh, UHRF1BP1L / RFU, BET1 / Fold change vs veh, BET1 / RFU, CNOT2 / Fold change vs veh, CNOT2 / RFU, ZNF268 / Fold change vs veh, ZNF268 / Fold change vs veh, ZNF507 / RFU, DGCR2 / Fold change vs veh, DGCR2 / RFU, WDSUB1 / Fold change vs veh, WDSUB1 / Fold change vs veh, HSP90B1 /// MIR3652 / RFU, ADSS / Fold change vs veh, ADSS / RFU, GK / Fold change vs veh, GK / RFU, ZNF148 / Fold change vs veh, ZNF148 / RFU, TAF9 / Fold change vs veh, TAF9 / RFU, SLC1A5 / Fold change vs veh, SLC1A5 / RFU, SLMO2 / Fold change vs veh, SLMO2 / RFU, ABCC4 / Fold change vs veh, ABCC4 / RFU, LOC101060439 /// RAP1B / Fold change vs veh, LOC101060439 /// RAP1B / RFU, RFX7 / Fold change vs veh, RFX7 / RFU, GTPBP10 / Fold change vs veh, GTPBP10 / RFU, CNEP1R1 / Fold change vs veh, CNEP1R1 / RFU, BIVM-ERCC5 /// ERCC5 / Fold change vs veh, BIVM-ERCC5 /// ERCC5 / RFU, ILF3 / Fold change vs veh, ILF3 / RFU 11762660_at / Fold change /veh 11762660_at / RFU VCAN (11757783_s_at) / Fold change /veh VCAN (11757783_s_at) / RFU DDX43 (11728927_at) / Fold change /veh DDX43 (11728927_at) / RFU KRT8 (11758188_x_at) / Fold change /veh KRT8 (11758188_x_at) / RFU NKD1 (11759106_at) / Fold change /veh NKD1 (11759106_at) / RFU SRD5A1 (11742802_a_at) / Fold change /veh SRD5A1 (11742802_a_at) / RFU TPSAB1 /// TPSB2 (11721975_s_at) / Fold change /veh TPSAB1 /// TPSB2 (11721975_s_at) / RFU GSTM3 (11746129_a_at) / Fold change /veh GSTM3 (11746129_a_at) / RFU IL23R (11737362_x_at) / Fold change /veh IL23R (11737362_x_at) / RFU TMEM51 (11727254_a_at) / Fold change /veh TMEM51 (11727254_a_at) / RFU PIWIL2 (11732686_x_at) / Fold change /veh PIWIL2 (11732686_x_at) / RFU ORM1 (11744905_x_at) / Fold change /veh ORM1 (11744905_x_at) / RFU CCDC152 (11743942_at) / Fold change /veh CCDC152 (11743942_at) / RFU ECM1 (11717891_a_at) / Fold change /veh ECM1 (11717891_a_at) / RFU IL23R (11748794_a_at) / Fold change /veh IL23R (11748794_a_at) / RFU TNFAIP8L3 (11732012_x_at) / Fold change /veh TNFAIP8L3 (11732012_x_at) / RFU MBOAT4 (11741988_at) / Fold change /veh MBOAT4 (11741988_at) / RFU 11764193_at / Fold change /veh 11764193_at / RFU TMEM53 (11763286_at) / Fold change /veh TMEM53 (11763286_at) / RFU MAGEB2 (11727129_at) / Fold change /veh MAGEB2 (11727129_at) / RFU TMEM200A (11744735_a_at) / Fold change /veh TMEM200A (11744735_a_at) / RFU CCDC152 (11751479_a_at) / Fold change /veh CCDC152 (11751479_a_at) / RFU FAM211A (11726209_a_at) / Fold change /veh FAM211A (11726209_a_at) / RFU RGS16 (11746705_a_at) / Fold change /veh RGS16 (11746705_a_at) / RFU VCAN (11755009_s_at) / Fold change /veh VCAN (11755009_s_at) / RFU RHOB (11743442_s_at) / Fold change /veh RHOB (11743442_s_at) / RFU RGS16 (11720943_a_at) / Fold change /veh RGS16 (11720943_a_at) / RFU RGS16 (11720944_at) / Fold change /veh RGS16 (11720944_at) / RFU, VPS4B / Fold change vs veh, VPS4B / RFU, CREB1 / Fold change vs veh, CREB1 / RFU, DNAJC13 / Fold change vs veh, DNAJC13 / RFU, GNAQ / Fold change vs veh, GNAQ / RFU, CDK5R1 / Fold change vs veh, CDK5R1 / RFU, ZRANB3 / Fold change vs veh, ZRANB3 / RFU, CUL4A / Fold change vs veh, CUL4A / RFU, CCNY / Fold change vs veh, CCNY / RFU, UFL1 / Fold change vs veh, UFL1 / RFU, COG3 / Fold change vs veh, COG3 / RFU, DIAPH2 / Fold change vs veh, DIAPH2 / RFU, SKA2 / Fold change vs veh, SKA2 / RFU, AFF3 / Fold change vs veh, AFF3 / RFU, LMF1 / Fold change vs veh, LMF1 / RFU, IPO11 / Fold change vs veh, IPO11 / RFU, DFFB / Fold change vs veh, DFFB / RFU, FOXP1 / Fold change vs veh, FOXP1 / RFU, CARD8 / Fold change vs veh, CARD8 / RFU, STRN3 / Fold change vs veh, STRN3 / RFU, ADK / Fold change vs veh, ADK / RFU, RASSF2 / Fold change vs veh, RASSF2 / RFU, WIPF1 / Fold change vs veh, WIPF1 / RFU, LARP1B / Fold change vs veh, LARP1B / RFU, RASA1 / Fold change vs veh, RASA1 / RFU, RB1 / Fold change vs veh, RB1 / RFU, PPFIA1 / Fold change vs veh, PPFIA1 / RFU, MAT2A / Fold change vs veh, MAT2A / RFU, CCT5 / Fold change vs veh, CCT5 / RFU, WDR92 / Fold change vs veh, WDR92 / RFU, CUX1 / Fold change vs veh, CUX1 / RFU, TTC7A / Fold change vs veh, TTC7A / RFU, TMEM135 / Fold change vs veh, TMEM135 / RFU, DEPTOR / Fold change vs veh, DEPTOR / RFU, CPM / Fold change vs veh, CPM / RFU, DNAJB6 / Fold change vs veh, DNAJB6 / RFU, CACNA2D3 / Fold change vs veh, CACNA2D3 / RFU, DTX4 / Fold change vs veh, DTX4 / RFU, TFCP2 / Fold change vs veh, TFCP2 / RFU, GMCL1 /// GMCL1P1 / Fold change vs veh, GMCL1 /// GMCL1P1 / RFU, AEBP2 / Fold change vs veh, AEBP2 / RFU, SNHG1 /// SNORD22 /// SNORD25 /// SNORD26 /// SNORD27 /// SNORD28 /// SNORD29 /// SNORD31 / Fold change vs veh, SNHG1 /// SNORD22 /// SNORD25 /// SNORD26 /// SNORD27 /// SNORD28 /// SNORD29 /// SNORD31 / Fold change (Aza/veh), C12orf56 (ProbeSet 11735607_a_at) / Fold change (ACY-1035/veh), C12orf56 (ProbeSet 11735607_a_at) / Fold change (Aza/veh), FGFR1OP (ProbeSet 11751329_s_at) / Fold change (ACY-1035/veh), FGFR1OP (ProbeSet 11751329_s_at) / Fold change (Aza/veh), VPS36 (ProbeSet 11739960_a_at) / Fold change (ACY-1035/veh), VPS36 (ProbeSet 11739960_a_at) / RFU SYPL1 (11715823_x_at) / Fold change /veh SYPL1 (11715823_x_at) / RFU IGFBP7 (11715501_s_at) / Fold change /veh IGFBP7 (11715501_s_at) / RFU REEP3 (11722064_at) / Fold change /veh REEP3 (11722064_at) / RFU IGLL1 (11728026_x_at) / Fold change /veh IGLL1 (11728026_x_at): dose or concentration left out as unconfirmed
Conditions: ProbeSet 11743580_s_at; LIST B

For `Nc1ccc(-c2cccs2)cc1NC(=O)c1ccc2c(c1)cc(C1CC1)n2CCN1CCOCC1` [ACY-1035], the “RFU, ACTR2” value was 854.57 RFU.
